Some test systems named below: SR leukemia; SNB-19 CNS; M14 melanoma; HCT-15 colon; HL-60(TB) leukemia; 786-0 renal; EKVX NSCLC; ACHN renal; UACC-257 melanoma; SF-295 CNS.
Experiment in all cases: NCI-60 cell line screen, 48 h

Structures are written as SMILES.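 Tested at 5 concentrations; 48 h exposure; 96-well plates; endpoints linearly interpolated, else capped at highest concentration. GI50 is the concentration that inhibits growth by half. At the TGI there is no net growth.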

With `COc1ccc(OC(=O)CC2Cc3cc(OC)c(OC)c(OC)c3-c3ccc(SC)c(=O)cc32)cc1` (stereo not given), the TGI in the test with SR leukemia was more than 100 µM; with SNB-19 CNS it was more than 100 µM; in the test with M14 melanoma it was more than 100 µM; with HCT-15 colon, more than 37.7 µM; in the test on HL-60(TB) leukemia, 2.35 µM; with 786-0 renal it was more than 36 µM. The TGI in the test on EKVX NSCLC was more than 100 µM; in the test with ACHN renal, more than 57.7 µM; in the test with UACC-257 melanoma, more than 54.2 µM.
As to `COc1cc(C(=O)Nc2cc(O)c(CC=C(C)C)c(O)c2)cc2c1O[C@]1(C)CC[C@@H](O)C(C)(C)[C@H]1C2`, the GI50 was 0.0624 µM in the test on SR leukemia; 4.64 µM in the test on SNB-19 CNS; 0.333 µM with M14 melanoma; 1.32 µM with HCT-15 colon; 0.0342 µM with 786-0 renal; 0.0397 µM with SF-295 CNS. In addition, the GI50 with EKVX NSCLC was 2.71 µM; in the test on ACHN renal, 1.78 µM; with UACC-257 melanoma it was 0.0989 µM. Further, the TGI with SR leukemia is more than 100 µM; in the test with SNB-19 CNS it was 61.6 µM; in the test with M14 melanoma, 2.35 µM; with HCT-15 colon, 14.4 µM; in the test with 786-0 renal it was 6.85 µM; in the test with SF-295 CNS, 0.325 µM. Also, the TGI in the test with EKVX NSCLC came out at 32 µM; with ACHN renal it was 24.3 µM; with UACC-257 melanoma, 13.1 µM.
As for `O=C1C=C(O)C(=Cc2c(O)cc(O)cc2O)C(O)=C1`, the TGI in the test with SR leukemia, in the test with SNB-19 CNS, in the test on M14 melanoma, in the test on HCT-15 colon, in the test on HL-60(TB) leukemia and with 786-0 renal was more than 100 µM each time. In addition, the TGI in the test with SF-295 CNS, in the test on EKVX NSCLC and in the test with UACC-257 melanoma was more than 100 µM each time.
With `COc1cccc(Oc2ccccc2NC(=O)CNC(=O)c2cccc3ccccc23)c1`, the GI50 is 0.115 µM with SR leukemia; 0.617 µM in the test on SNB-19 CNS; 0.157 µM in the test with M14 melanoma; 0.129 µM in the test with HCT-15 colon; 0.081 µM with HL-60(TB) leukemia; 0.183 µM in the test on 786-0 renal. For the same compound, the figures for the GI50 with SF-295 CNS, in the test with EKVX NSCLC and with ACHN renal were 0.111 µM, 1.28 µM and 0.398 µM, respectively. The TGI is more than 25 µM with SR leukemia; more than 25 µM with SNB-19 CNS; more than 25 µM in the test on M14 melanoma; more than 25 µM in the test on HCT-15 colon; 0.237 µM in the test on HL-60(TB) leukemia; more than 25 µM in the test on 786-0 renal. Further, the TGI in the test with SF-295 CNS, with EKVX NSCLC and with ACHN renal was more than 25 µM throughout.
For the compound `COc1cc2ncc3c(nc4sccn43)c2cc1OC`, the GI50 in the test on SR leukemia is 12.4 µM; with SNB-19 CNS, 47.2 µM; in the test on M14 melanoma it was 16.4 µM; in the test on HCT-15 colon, 11.1 µM; with 786-0 renal it was 14.6 µM; with SF-295 CNS, 18.3 µM. The GI50 in the test on EKVX NSCLC is 20.7 µM; in the test on ACHN renal, 10.2 µM; in the test with UACC-257 melanoma, 43.8 µM. Also, the TGI is 41.7 µM in the test with SR leukemia; more than 100 µM in the test with SNB-19 CNS; 78.2 µM with M14 melanoma; more than 100 µM in the test with HCT-15 colon; 40.2 µM in the test with 786-0 renal; 62.8 µM in the test on SF-295 CNS. Besides, the TGI in the test with EKVX NSCLC was more than 100 µM; with ACHN renal, 26 µM; with UACC-257 melanoma, more than 100 µM.
On to `CC1c2ccccc2CCN1c1ccc(CO)c(Cl)c1` (stereo not given), for which the GI50 is 28.3 µM with SR leukemia; 34.5 µM with SNB-19 CNS; 22.5 µM with M14 melanoma; 13.3 µM with HCT-15 colon; 21.3 µM in the test on HL-60(TB) leukemia; 16.7 µM in the test with 786-0 renal. Besides, the GI50 was 0.274 µM in the test on SF-295 CNS, 22.6 µM in the test on ACHN renal and 0.0412 µM in the test on UACC-257 melanoma. Also, the TGI with SR leukemia was more than 85.9 µM; in the test on SNB-19 CNS it was more than 100 µM; in the test on M14 melanoma, 58.2 µM; in the test on HCT-15 colon, 53.3 µM; with HL-60(TB) leukemia it was 70.2 µM; with 786-0 renal, 43.1 µM. In addition, the TGI with SF-295 CNS is 31.4 µM; with ACHN renal, more than 81 µM; in the test with UACC-257 melanoma it was 0.191 µM.
Turning to `COc1ccc(C(=O)/C=C/c2ccc(OCC#N)cc2)cc1`, the TGI with SR leukemia was 49.5 µM; in the test on SNB-19 CNS it was more than 100 µM; with M14 melanoma it was 42 µM; in the test on HCT-15 colon it was 54.7 µM; with 786-0 renal, more than 100 µM; in the test with SF-295 CNS, more than 100 µM. Besides, the TGI in the test on EKVX NSCLC, in the test on ACHN renal and in the test on UACC-257 melanoma was more than 100 µM in each case.
On to `CN1CCc2nc3sc(C(N)=O)c(N)c3c(-c3cccs3)c2C1`, for which the GI50 in the test with SR leukemia is 1.8 µM; in the test on SNB-19 CNS it was 4.34 µM; in the test on M14 melanoma, 4.19 µM; with HCT-15 colon, 3.31 µM; in the test on HL-60(TB) leukemia it was 2.5 µM; with 786-0 renal it was 4.41 µM. Also, the values for the GI50 with SF-295 CNS, in the test on EKVX NSCLC and with UACC-257 melanoma were 3.61 µM, 3.54 µM and 4 µM, respectively. The TGI in the test with SR leukemia is 7.31 µM; in the test with SNB-19 CNS, more than 100 µM; in the test with M14 melanoma, 19.4 µM; in the test with HCT-15 colon, more than 100 µM; in the test on HL-60(TB) leukemia, 6.97 µM; with 786-0 renal it was more than 100 µM. In addition, the TGI with SF-295 CNS, in the test with EKVX NSCLC and in the test with UACC-257 melanoma was more than 100 µM throughout.
For the compound `CCc1c(C)nc2sc3c(N)ncnc3c2c1C`, the GI50 with SR leukemia, in the test with SNB-19 CNS, in the test with M14 melanoma, in the test on HCT-15 colon, in the test on HL-60(TB) leukemia and in the test on 786-0 renal was more than 25 µM each time. For the same compound, the GI50 in the test with SF-295 CNS, in the test with ACHN renal and in the test on UACC-257 melanoma was more than 25 µM each time. Also, the TGI in the test on SR leukemia, in the test with SNB-19 CNS, with M14 melanoma, in the test on HCT-15 colon, in the test with HL-60(TB) leukemia and with 786-0 renal was more than 25 µM each time. Further, the TGI in the test on SF-295 CNS, in the test with ACHN renal and in the test with UACC-257 melanoma was more than 25 µM each time.

For the origin of these results see PubChem BioAssay (NCI).
